Measurements published in patent US12128013B2, “Toxic aldehyde related diseases and treatment” (Aldeyra Therapeutics, Inc., priority 2013, dated 2024).
“Also recorded” adds a separate entry of the source.

What was measured:
[1] = Reaction with MDA salt in glyceryl trioleate / Captisol-PBS / linoleic acid, monitored by LC/MS; details: 0.064 mmol compound and MDA, ambient temperature
Method: To five separate reaction vials was added Compounds 1, 2, 12, 14, and 16, respectively (0.064 mmol), MDA salt (22.7% MDA, 0.064 mmol), and glyceryl trioleate (600 mg). To the mixture was added 20 wt % Capitsol in aqueous PBS (˜2.5 ml), followed by linoleic acid (600 mg). The reaction mixture was stirred vigorously at ambient temperature and monitored by LC/MS. […] Other MDA adducts were also formed at different time points of the reactions.

[2] = system: Primary rat cortical cultures; experiment: LDH assay in primary rat cortical cultures; assay type: cell-based; details: 24 or 48 hours, various concentrations; FIG. 2
Method: Primary rat cortical cultures were placed in an incubator for 24 or 48 hours and treated with various concentrations of Compound 9. Then 20 μL of the culture media was removed for an LDH assay as described in Bergmeyer et al., Methods of Enzymatic Analysis, 3rd ed. (1983).

[3] = system: allergic dermatitis; experiment: Allergic dermatitis, oxazolone (OXL) model, pinna thickness; assay type: in vivo, mice; details: single dose 100 mg/kg intraperitoneally, FIG. 5B
Method: To measure the efficacy of Compound 9 in treating allergic dermatitis, oxazolone (“OXL”) was applied (1.5%, 100 μL in acetone) to the shaved abdomens of mice. Seven days later, the thickness of the pinna of the OXL treated mice was determined. Then Compound 9 (100 mg/kg) or the vehicle (i.e., Captisol) was administered intraperitoneally to mice followed by topical application of OXL (1%, 20 μL) 30 min later to both the anterior and posterior portions of the right pinna. As a control, the left pinna received 20 μL of acetone (OXL excipient) to both the anterior and posterior portions. The thickness of the pinna of both ears was measured again 24 hours later. N=10 per group.

[4] = system: radiation induced fibrosis; experiment: Radiation induced fibrosis after 40 Gy irradiation; assay type: in vivo; details: hamsters subject to 40 Gy irradiation; FIG. 7
[5] = Aldehyde trapping (FIG. 1), HNE
[6] = system: contact dermatitis; experiment: Contact dermatitis, phorbol myristate acetate (PMA) model, pinna thickness; assay type: in vivo, mice; details: single dose, FIG. 5A
Method: To determine the efficacy of Compound 9 in treating contact dermatitis, phorbol myristate acetate (“PMA”) was applied topically (2.5 μg in 20 μL) to both the anterior and posterior portions of the right pinna of mice (N=10 per group). As a control, the left pinna received 20 μL of ethanol (PMA excipient) to both the anterior and posterior portions. Six hours after the PMA application, both the right and left pinna thickness was determined. Measurements were determined at least twice from the same region of both ears, with care taken not to include hair or folded pinna.

[7] = Aldehyde trapping (FIG. 1), MDA
[8] = system: circulating cytokines; experiment: LPS exposure in mice, ELISA of circulating cytokines; assay type: in vivo, Male C57BI/6 mice; details: single dose 30 minutes before LPS (20 mg/kg), blood two hours after LPS
Method: Male C57BI/6 mice were dosed with Compound 9 30 minutes before they were exposed to LPS (20 mg/kg). Two hours after the LPS exposure, blood was collected from the mice and an ELISA was conducted to determine the amount of circulating cytokines.

[9] = in the presence of peptides and phospholipids

Compound	form of the MDA adducts [1]	reaction with MDA / trapping of MDA (formation of MDA adducts) [1]	further results
CC(C)(O)c1c(N)cnc2ccc(Cl)c(F)c12 [Compound 1, 2-(3-amino-6-chloro-5-fluoroquinolin-4-yl)propan-2-ol]	a majority of the adducts were bis-oxaminal	quickly react with MDA to form MDA adducts; also recorded: reacts and traps MDA	–
CC(C)(O)c1c(N)cnc2ccc(Cl)cc12 [Compound 2, 2-(3-amino-6-chloroquinolin-4-yl)propan-2-ol]	–	quickly react with MDA to form MDA adducts; also recorded: reacts and traps MDA	–
CC(C)(O)c1nc2ccc(Cl)cc2cc1N [Compound 9]	in both the imine form and the oxaminal form	reacted with MDA and formed MDA adducts; also recorded: reacts and traps MDA	aldehyde-mediated cell death in neurons (LDH assay) [2]: prevented aldehyde-mediated cell death in neurons; efficacy against allergic dermatitis [3]: effective; radiation induced fibrosis [4]: diminishes radiation induced fibrosis; reaction with and trapping of HNE ([5]; FIG. 1): rapidly reacts with and traps; also recorded: decrease aldehyde (e.g., MDA and HNE) concentration in a time-dependent manner; trapping of HNE [5, 9]: rapidly traps MDA and HNE; efficacy against contact dermatitis [6]: effective; reaction with and trapping of MDA ([7]; FIG. 1): rapidly reacts with and traps; also recorded: decrease aldehyde (e.g., MDA and HNE) concentration in a time-dependent manner; trapping of MDA [7, 9]: rapidly traps MDA and HNE; other chemokines, such as eotaxin, IL-12, IP-10, LIF, MCP-1, MIG, MIP, and RANTES [8]: decreased; anti-inflammatory cytokines, such as IL-10 ([8]; FIG. 4): elevated; proinflammatory cytokines, such as IL-5 and IL-1β, IL-17, and TNF ([8]; FIGS. 3 and 4): broad downregulation; also recorded: reduction
Cc1ccc(-c2nc3cc(N)c(C(C)(C)O)c(Cl)c3o2)cc1 [Compound 12, 2-(5-amino-7-chloro-2-p-tolylbenzoxazol-6-yl)propan-2-ol]	a majority of the adducts were bis-oxaminal	quickly react with MDA to form MDA adducts; also recorded: reacts and traps MDA	–
CC(C)(O)c1c(N)cc2onc(C3CC3)c2c1Cl [Compound 14, 2-(6-amino-4-chloro-3-cyclopropylbenzisoxazol-5-yl)propan-2-ol]	a majority of the adducts were bis-oxaminal	quickly react with MDA to form MDA adducts; also recorded: reacts and traps MDA	–
CC(C)(O)c1c(N)cc(Cl)c2c(C3CC3)noc12 [Compound 16, 2-(6-amino-4-chloro-3-cyclopropylbenzisoxazol-7-yl)propan-2-ol]	a majority of the adducts were bis-oxaminal	quickly react with MDA to form MDA adducts; also recorded: reacts and traps MDA	–
